The nature of data set [1]: Measurement of siRNA encapsulation (SYBR Gold fluorescence). The settings on record: FVII siRNA in LNP. It counts as physicochemical. As to the method: The lipid nanoparticles (LNPs) were formed by mixing equal volumes of lipids dissolved in alcohol with siRNA dissolved in a citrate buffer by an impinging jet process. The lipid solution contains a cationic lipid compound of the invention, a helper lipid (cholesterol), an optional neutral lipid (DSPC) and a stealth lipid (S010, S024, S027, or S031) at a concentration of 8-16 mg/mL with a target of 12 mg/mL in an alcohol. The siRNA to total lipid ratio is approximately 0.05 (wt/wt). Where a LNP formulation contains four lipid components, the molar ratios of the lipids ranges from 20 to 70 mole percent for the cationic lipid with a target of 40-60, the mole percent of helper lipid ranges from 20 to 70 with a target of 30 to 50, the mole percent of neutral lipid ranges from 0-30, the mole percent of PEG lipid has a range from 1 to 6 with a target of 2 to 5. The concentration of siRNA solution ranges from 0.7 to 1.0 mg/mL with a target of 0.8 to 0.9 mg/mL in a sodium citrate: sodium chloride buffer pH 4-6, with a target of 4.5-5.5. The LNPs are formed by mixing equal volumes of lipid solution in ethanol with siRNA dissolved in a citrate buffer by an impinging jet process through a mixing device with ID ranging from 0.25 to 2.0 mm at a flow rate from 10 to 640 mL/min. The mixed LNP solution is held at room temperature for 0-24 hrs prior to a dilution step. The solution is then concentrated and diafiltered with suitable buffer by ultrafiltration process using membranes with a MW cutoff from 30 to 500 KD. The final product is sterile filtered and stored at 4° C.
SYBR Gold flourescence reagent is used for the determination of siRNA encapsulation in the DLP's. DLP's with and without triton x-100 are used to determine the free siRNA and total siRNA amounts. DLP's samples with and without triton X-100 were excited at 485 nm and flourescence emission is measured at 530 nm. Encapsulation efficiency is calculated based on the following formula: Encapsulation efficiency: [(free siRNA concentration−total siRNA concentration)/(total siRNA concentration)]×100% Encapsulation Data

Data set [2] in a line: Measurement of mRNA encapsulation in lipid nanoparticles (Quant-iT Ribogreen). In kind it is physicochemical. As to conditions: Leptin mRNA in LNP. The method in brief:
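LNPs were formed by T-junction mixing of ethanolic lipids (cationic lipid:DSPC:cholesterol:PEG lipid 40:10:38:2) with mRNA in citrate pH 5.8–6.0 at N:P 4:1, then dialysed against PBS overnight at 4 °C. RiboGreen fluorescence (ex 480/em 520 nm) was read on samples diluted 400–2,000-fold in TE with or without 0.75% Triton X-100 and quantified against standard curves. Encapsulation % = (Triton − buffer concentration)/Triton concentration.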

Molecules are shown by their SMILES.

As for `CCCCC/C=C\C/C=C\CCCCCCCC(=O)OCC(COC(=O)CCCCCCC/C=C\C/C=C\CCCCC)COC(=O)C1CCN(CC2CC2)CC1` [Example 9, (9Z,9′Z,12Z,12′Z)-2-(((1-(cyclopropylmethyl)piperidine-4-carbonyl)oxy)methyl)propane-1,3-diyl bis(octadeca-9,12-dienoate)], in data set [1], the “% encapsulation siRNA FVII” value was determined as 86.7%.
For `CCCCC/C=C\C/C=C\CCCCCCCC(=O)OCC(COC(=O)CC(CCCCCCCC)CCCCCCCC)COC(=O)OCCCN(CC)CC` (centres unmarked) [Example 22, (9Z,12Z)-3-(((3-(diethylamino)propoxy)carbonyl)oxy)-2-(((3-octylundecanoyl)oxy)methyl)propyl octadeca-9,12-dienoate], in data set [1], the “% encapsulation siRNA FVII” value turned out to be 86.1%.
Turning to `CCCCC/C=C\C/C=C\CCCCCCCC(=O)OCC(COC(=O)CCCCCCCC(CCCCC)CCCCC)COC(=O)OCCCN(CC)CC` (centres unmarked) [Example 24, (9Z,12Z)-3-(((3-(diethylamino)propoxy)carbonyl)oxy)-2-(((9-pentyltetradecanoyl)oxy)methyl)propyl octadeca-9,12-dienoate], the “% encapsulation siRNA FVII” value in data set [1] turned out to be 89.1%. Moreover, the “% encapsulation mRNA Leptin” value in data set [2] came to 86.6%.
Turning to `CCCCC/C=C\C/C=C\CCCCCCCC(=O)OCC(COC(=O)CCCC(CCCCCCC)CCCCCCC)COC(=O)OCCCN(CC)CC` (centres unmarked) [Example 25, (9Z,12Z)-3-(((3-(diethylamino)propoxy)carbonyl)oxy)-2-(((5-heptyldodecanoyl)oxy)methyl)propyl octadeca-9,12-dienoate], the “% encapsulation siRNA FVII” value in data set [1] turned out to be 88.7%. Further, the “% encapsulation mRNA Leptin” value in data set [2] is reported as 95.3%.
For `CCCCC/C=C\C/C=C\CCCCCCCC(=O)OCC(COC(=O)OCCN(C)C)COC(=O)C(OCCCCCCC)OCCCCCCC` (centres unmarked) [Example 26, (9Z,12Z)-3-(2,2-bis(heptyloxy)acetoxy)-2-((((2-(dimethylamino)ethoxy)carbonyl)oxy)methyl)propyl octadeca-9,12-dienoate], the “% encapsulation siRNA FVII” value in data set [1] is reported as 80.0%. Also, in data set [2], the “% encapsulation mRNA Leptin” value is recorded as 96.9%.
